Measurements reported in patent US9879008B2, “2,3,4,6-tetra-substituted benzene-1,5-diamine derivatives, preparation method therefor and medicinal use thereof” (SHANGHAI HAIYAN PHARMACEUTICAL TECHNOLOGY CO., LTD., priority 2014, dated 2018).
Like-named read-outs stand apart in the source and are kept apart here.

Legend:
wild-type EGFR kinase = target: T1, wild-type EGFR kinase (Homo sapiens, UniProt P00533); test: z-lyte inhibition test against wild-type EGFR kinase; assay type: biochemical; conditions: 10 μM ATP, read-out: EGFR WT (IC50/nM);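 also: reaction volume 10 µL holding 0.8 ng/µL enzyme and 2 µM Tyr04 substrate, with DMSO at 2% once compounds are present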
T1 construct: purchased Invitrogen PV3872
T1 sequence (P00533 25-1210): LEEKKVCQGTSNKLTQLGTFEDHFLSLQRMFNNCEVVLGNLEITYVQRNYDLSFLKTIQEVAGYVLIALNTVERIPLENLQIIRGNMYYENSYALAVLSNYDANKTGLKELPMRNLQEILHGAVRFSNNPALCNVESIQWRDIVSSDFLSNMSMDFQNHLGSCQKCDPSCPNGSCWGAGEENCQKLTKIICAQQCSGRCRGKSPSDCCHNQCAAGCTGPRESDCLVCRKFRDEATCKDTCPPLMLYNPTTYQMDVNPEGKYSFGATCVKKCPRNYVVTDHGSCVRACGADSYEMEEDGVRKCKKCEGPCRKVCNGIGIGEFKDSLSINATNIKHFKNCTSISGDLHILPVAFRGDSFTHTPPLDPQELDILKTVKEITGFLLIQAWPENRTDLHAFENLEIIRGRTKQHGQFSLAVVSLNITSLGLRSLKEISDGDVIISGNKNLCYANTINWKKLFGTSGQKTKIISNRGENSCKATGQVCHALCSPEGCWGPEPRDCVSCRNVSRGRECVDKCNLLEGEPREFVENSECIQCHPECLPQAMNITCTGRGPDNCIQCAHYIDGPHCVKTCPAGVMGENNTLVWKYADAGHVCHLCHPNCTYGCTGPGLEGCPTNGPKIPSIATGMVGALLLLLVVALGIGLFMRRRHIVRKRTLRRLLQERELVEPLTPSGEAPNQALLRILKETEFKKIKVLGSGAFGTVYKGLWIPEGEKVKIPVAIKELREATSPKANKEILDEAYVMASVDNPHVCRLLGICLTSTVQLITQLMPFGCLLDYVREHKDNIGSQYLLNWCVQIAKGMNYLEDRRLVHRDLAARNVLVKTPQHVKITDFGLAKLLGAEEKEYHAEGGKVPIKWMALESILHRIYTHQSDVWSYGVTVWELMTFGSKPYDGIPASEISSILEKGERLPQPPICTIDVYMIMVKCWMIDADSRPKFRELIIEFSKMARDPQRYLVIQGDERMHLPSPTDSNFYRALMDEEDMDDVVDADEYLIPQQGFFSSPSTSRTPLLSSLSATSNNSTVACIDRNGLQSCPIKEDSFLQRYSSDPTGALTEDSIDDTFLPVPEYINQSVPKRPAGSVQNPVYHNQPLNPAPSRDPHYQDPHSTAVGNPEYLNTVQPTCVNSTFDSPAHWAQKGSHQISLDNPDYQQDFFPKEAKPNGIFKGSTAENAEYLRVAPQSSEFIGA

A431 cell = test: MTT cytostatic activity, A431 cell; assay type: cell-based; conditions: Homo sapiens, A-431; MTT, 72 h; read-out: A431 cell (IC50/nM)
H1975 cell = test: MTT cytostatic activity, H1975 cell; assay type: cell-based; conditions: for IC50: Homo sapiens, read-out: H1975 cell (IC50/nM); for Selective inhibitory activity against cells [IC50(A431 cell)/IC50(H1975 cell)]: ratio of cell IC50 values;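 as to all read-outs here: cells in 96-well plates exposed to compound for 72 h, then given MTT for a further 4 h at 37 °C under 5% CO2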
NIH3T3 cell = test: MTT cytotoxicity against NIH3T3 cells; assay type: cell-based; conditions: Mus musculus, read-out: MTT assay against NIH3T3 cell (IC50/nM)
H1975 cells = test: ELISA assay for cell activity of EGFR T790M inhibitor, H1975 cells; conditions: for Selective inhibitory activities against cell [IC50(A431 cell)/IC50(H1975 cell)]: ELISA, ratio of cell IC50 values; for IC50: Homo sapiens, NCI-H1975, 1 h, read-out: H1975 cell (IC50/nM)
A431 cells = test: ELISA assay for cell activity, EGF-treated A431 cells; assay type: cell-based; conditions: Homo sapiens, A-431, compound 1 h, then EGF 45 min;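 also: Serum-starved A431 cells, ELISA on lysates read as OD450 minus OD570, inhibition scaled between EGF-stimulated wells (0%) and unstimulated cell control (100%), DMSO 0.5% final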
[1] = NIH3T3, cytotoxicity, MTT, 72 h

SMILES | IC50 (wild-type EGFR kinase) [nM] | IC50 (NIH3T3 cell; [1]) [nM] | other results
C=CC(=O)Nc1cc(Nc2nccc(OC3CCCN(S(C)(=O)=O)CC3)n2)c(OC)cc1N(C)CCN(C)C (stereo not drawn) [Compound J-36] | 17 | > 10000 | IC50 (A431 cell): 3260 nM; IC50 (H1975 cell; NCI-H1975, MTT, 72 h): 69 nM; Selective inhibitory activity against cells [IC50(A431 cell)/IC50(H1975 cell)] (H1975 cell; MTT): 47.3
C=CC(=O)Nc1cc(Nc2nccc(OC3CN(c4cnc5c(cnn5C)c4)C3)n2)c(OC)cc1N1CCC(N(C)C)CC1 [Compound J-19] |  | > 10000 | 
C=CC(=O)Nc1cc(Nc2ncc(F)c(NC3CN(S(C)(=O)=O)C3)n2)c(OC)cc1N1CCC(N(C)C)CC1 [Compound J-62] | 6 | > 10000 | 
C=CC(=O)Nc1cc(Nc2ncc(Cl)c(OC3CN(CCF)C3)n2)c(OC)cc1N1CCC(N(C)C)CC1 [Compound J-54] | 376 | > 10000 | IC50 (A431 cell): 6080 nM; IC50 (H1975 cell; NCI-H1975, MTT, 72 h): 92 nM; Selective inhibitory activity against cells [IC50(A431 cell)/IC50(H1975 cell)] (H1975 cell; MTT): 66.1
C=CC(=O)Nc1cc(Nc2nccc(OC3CN(C(=O)c4ccccc4)C3)n2)c(OC)cc1N1CCC(N(C)C)CC1 [Compound J-8, N-(5-(4-(1-benzoylaza-3-oxy)pyrimidine-2-amino)-2-(4-(dimethylamino)piperidine-1-yl)-4-methoxylphenyl)acrylamide] |  | > 10000 | 
C=CC(=O)Nc1cc(Nc2ncc(Cl)c(NC3CCN(S(C)(=O)=O)CC3)n2)c(OC)cc1N1CCC(N(C)C)CC1 [Compound J-69] | 105 | > 10000 | 
C=CC(=O)Nc1cc(Nc2nccc(OC3CN(C(C)=O)C3)n2)c(OC)cc1N(C)CCN(C)C [Compound J-23] | 32 | > 10000 | 
C=CC(=O)Nc1cc(Nc2ncc(Cl)c(NC3CC3)n2)c(OC)cc1N1CCC(N(C)C)CC1 [Compound J-74] | 216 |  | Selective inhibitory activities against cell [IC50(A431 cell)/IC50(H1975 cell)] (H1975 cells): 7.7; IC50 (H1975 cells): 264 nM; IC50 (A431 cells): 2030 nM
C=CC(=O)Nc1cc(Nc2ncc(Cl)c(N[C@@H]3CCCN(CCF)C3)n2)c(OC)cc1N1CCC(N(C)C)CC1 [Compound J-67] | 2 |  | 
C=CC(=O)Nc1cc(Nc2nccc(OC3CCN(C(=O)OC(C)(C)C)CC3)n2)c(OC)cc1N1CCC(N(C)C)CC1 [Compound J-2, tert-butyl 4-(2-(5-acrylamido-4-(4-(dimethylamino)piperidine-1-yl)-2-methoxyphenylamino)pyrimidine-4-oxy)piperidine-1-formate] | 154 |  | 
C=CC(=O)Nc1cc(Nc2ncc(Cl)c(OC3CCN(S(C)(=O)=O)CC3)n2)c(OC)cc1N(C)CCN(C)C [Compound J-3, N-(5-(5-chloro-4-(1-(methylsulfonyl)piperidine-4-oxy)pyrimidine-2-amino)-2-((2-(dimethylamino)ethyl)(methyl)amino)-4-methoxylphenyl) acrylamide] | 38 | > 10000 | 
C=CC(=O)Nc1cc(Nc2nccc(OC3CN(S(=O)(=O)c4ccccc4)C3)n2)c(OC)cc1N1CCC(N(C)C)CC1 [Compound J-9, N-(2-(4-(dimethylamino)piperidine-1-yl)-4-methoxy-5-(4-(1-(phenylsulfonyl)azetidine-3-oxy)pyrimidino)phenyl)acrylamide] | 72 | > 10000 | 
CN(C)C/C=C/C(=O)Nc1cc2c(Nc3ccc(F)c(Cl)c3)ncnc2cc1O[C@H]1CCOC1 [BIBW2992, Afatinib, reference compound] |  |  | IC50 (H1975 cell; NCI-H1975, 72 h): 88 nM; IC50 (NIH3T3 cell; NIH3T3, 72 h): 2750 nM
C=CC(=O)Nc1cc(Nc2nccc(OC3CN(CCF)C3)n2)c(OC)cc1N(C)CCN(C)C [Compound J-53, N-(2-((2-(dimethylamino)ethyl)(methyl)amino)-5-(4-(1-(2-fluroethyl)azetidine-3-oxy)pyrimidine-2-amino)-4-methoxyphenyl) acrylamide] |  | > 10000 | Selective inhibitory activities against cell [IC50(A431 cell)/IC50(H1975 cell)] (H1975 cells): 7.5; IC50 (H1975 cells): 30 nM; IC50 (A431 cells): 225 nM
C=CC(=O)Nc1cc(Nc2ncc(Cl)c(N[C@H]3CCCN(CCF)C3)n2)c(OC)cc1N1CCC(N(C)C)CC1 [Compound J-68] | 41 | 7600 | Selective inhibitory activities against cell [IC50(A431 cell)/IC50(H1975 cell)] (H1975 cells): 8.1; IC50 (H1975 cells): 48 nM; IC50 (A431 cells): 388 nM
C=CC(=O)Nc1cc(Nc2ncc(C#N)c(OC3CN(S(C)(=O)=O)C3)n2)c(OC)cc1N1CCC(N(C)C)CC1 [Compound J-32] | 11 | > 10000 | 
C=CC(=O)Nc1cc(Nc2nccc(OC3CN(c4cnc5c(cnn5C)c4)C3)n2)c(OC)cc1N(C)CCN(C)C [Compound J-15] |  | > 10000 | Selective inhibitory activities against cell [IC50(A431 cell)/IC50(H1975 cell)] (H1975 cells): 11.1; IC50 (H1975 cells): 75 nM; IC50 (A431 cells): 835 nM
C=CC(=O)Nc1cc(Nc2nccc(OC3CN(C(=O)c4ccccc4)C3)n2)c(OC)cc1N(C)CCN(C)C [Compound J-6] |  | > 10000 | 
C=CC(=O)Nc1cc(Nc2ncc(Cl)c(O[C@H]3CCCN(S(C)(=O)=O)C3)n2)c(OC)cc1N1CCC(N(C)C)CC1 [Compound J-42] |  | > 10000 | 

SMILES | IC50 (wild-type EGFR kinase) [nM] | IC50 (NIH3T3 cell; [1]) [nM] | other results
C=CC(=O)Nc1cc(Nc2ncc(Cl)c(OC3(C)CN(S(C)(=O)=O)C3)n2)c(OC)cc1N1CCC(N(C)C)CC1 [Compound J-75] | 463 |  | Selective inhibitory activities against cell [IC50(A431 cell)/IC50(H1975 cell)] (H1975 cells): >22.8; IC50 (H1975 cells): 438 nM; IC50 (A431 cells): > 10000 nM
C=CC(=O)Nc1cc(Nc2nccc(OC3CCN(S(C)(=O)=O)CC3)n2)c(OC)cc1N(C)CCN(C)C [Compound J-4, N-(2-((2-(dimethylamino)ethyl)(methyl)amino)-4-methoxy-5-(4-(1-(methylsulfonyl)piperidine-4-oxy)pyrimidine-2-amino)phenyl) acrylamide] | 52 | > 10000 | 
C=CC(=O)Nc1cc(Nc2nccc(OC3CN(c4cnc5ccccc5c4)C3)n2)c(OC)cc1N(C)CCN(C)C [Compound J-14, N-(2-((2-(dimethylamino)ethyl)(methyl)amino)-4-methoxy-5-(4-(1-(quinoline-3-yl)azetidine-3-oxy)pyrimidine-2-amino)phenyl)acrylamide] |  | > 10000 | 
C=CC(=O)Nc1cc(Nc2ncc(Cl)c(OCC3CN(C(C)=O)C3)n2)c(OC)cc1N1CCC(N(C)C)CC1 [Compound J-33] | 597 | > 10000 | 
C=CC(=O)Nc1cc(Nc2ncc(F)c(O[C@H]3CCN(S(C)(=O)=O)C3)n2)c(OC)cc1N1CCC(N(C)C)CC1 [Compound J-52] | 47 | > 10000 | Selective inhibitory activities against cell [IC50(A431 cell)/IC50(H1975 cell)] (H1975 cells): 15; IC50 (H1975 cells): 47 nM; IC50 (A431 cells): 700 nM
C=CC(=O)Nc1cc(Nc2nccc(OC3CN(c4cnc5c(ccn5C)c4)C3)n2)c(OC)cc1N(C)CCN(C)C [Compound J-16] |  | > 10000 | 
C=CC(=O)Nc1cc(Nc2nccc(OC3CN(C(C)=O)C3)n2)c(OC)cc1N1CCC(N(C)C)CC1 [Compound J-20] | 69 | > 10000 | IC50 (A431 cell): 5350 nM; IC50 (H1975 cell; NCI-H1975, MTT, 72 h): 138 nM; Selective inhibitory activity against cells [IC50(A431 cell)/IC50(H1975 cell)] (H1975 cell; MTT): 38.8
C=CC(=O)Nc1cc(Nc2nccc(OC3CN(C(=O)c4ccc(C)cc4)C3)n2)c(OC)cc1N1CCC(N(C)C)CC1 [Compound J-24] | 119 | 6000 | 
C=CC(=O)Nc1cc(Nc2ncc(F)c(O[C@@H]3CCN(S(C)(=O)=O)C3)n2)c(OC)cc1N1CCC(N(C)C)CC1 [Compound J-51] | 26 | > 10000 | Selective inhibitory activities against cell [IC50(A431 cell)/IC50(H1975 cell)] (H1975 cells): 15; IC50 (H1975 cells): 64 nM; IC50 (A431 cells): 937 nM
C=CC(=O)Nc1cc(Nc2ncc(Cl)c(N(C)C3CN(S(C)(=O)=O)C3)n2)c(OC)cc1N1CCC(N(C)C)CC1 [Compound J-73] | 24 | > 10000 | Selective inhibitory activities against cell [IC50(A431 cell)/IC50(H1975 cell)] (H1975 cells): 19; IC50 (H1975 cells): 26 nM; IC50 (A431 cells): 494 nM
C=CC(=O)Nc1cc(Nc2nccc(OC3CN(C(=O)c4ccc(F)cc4)C3)n2)c(OC)cc1N(C)CCN(C)C [Compound J-21] |  | > 10000 | 
C=CC(=O)Nc1cc(Nc2nccc(OC3CN(S(C)(=O)=O)C3)n2)c(OC)cc1N1CCC(N(C)C)CC1 [Compound J-10, N-(2-(4-(dimethylamino)piperidine-1-yl)-4-methoxy-5-(4-(1-(methylsulfonyl)azetidine-3-oxy)pyrimidine-2-amino)phenyl)acrylamide] |  | > 10000 | IC50 (A431 cell): 596 nM; IC50 (H1975 cell; NCI-H1975, MTT, 72 h): 31 nM; Selective inhibitory activity against cells [IC50(A431 cell)/IC50(H1975 cell)] (H1975 cell; MTT): 19.2
C=CC(=O)Nc1cc(Nc2nccc(OC3CN(C(=O)c4ccc(C)cc4)C3)n2)c(OC)cc1N(C)CCN(C)C [Compound J-22] |  | > 10000 | 
C=CC(=O)Nc1cc(Nc2ncc(Cl)c(NC3CN(C(C)=O)C3)n2)c(OC)cc1N1CCC(N(C)C)CC1 [Compound J-61] | 181 | > 10000 | 
C=CC(=O)Nc1cc(Nc2ncc(F)c(O[C@@H]3CCN(C(C)=O)C3)n2)c(OC)cc1N1CCC(N(C)C)CC1 [Compound J-49] | 259 |  | 
C=CC(=O)Nc1cc(Nc2nccc(OC3CCN(S(C)(=O)=O)CC3)n2)c(OC)cc1N1CCC(N(C)C)CC1 [Compound J-5, N-(2-(4-(dimethylamino)piperidine-1-yl)-4-methoxy-5-(4-(1-(methylsulfonyl)piperidine-4-oxy)pyrimidine-2-amino)phenyl)acrylamide] | 51 | > 10000 | 
C=CC(=O)Nc1cc(Nc2ncc(Cl)c(OC3CN(S(C)(=O)=O)C3)n2)ccc1N1CCC(N(C)C)CC1 [Compound J-76] | 14 |  | 
C=CC(=O)Nc1cc(Nc2ncc(Cl)c(OCC3CN(S(C)(=O)=O)C3)n2)c(OC)cc1N1CCC(N(C)C)CC1 [Compound J-34] | 113 | > 10000 | 
